Laboratory results published in patent US9301917B2, “Sustained-release pharmaceutical composition” (Kyoto University, priority 2010, dated 2016).

Columns and labels:
[1] = target: T1, collagen solution (KOKEN ATELOCOLLAGEN IMPLANT) (Bos taurus, UniProt P02453+P02465); assay: Influence of sucrose, glucose and glucuronic acid on gelation of collagen solution (Reference Example 7); format: physicochemical; settings: sugar 0.01 M, collagen 3% [w/v], pH 7.4, 37° C., absorbance at 400 nm
T1 construct: atelocollagen obtained by treatment with a protease such as pepsin; purchased KOKEN CO., LTD; KOKEN ATELOCOLLAGEN IMPLANT
Method: The following sugars were used as sugars to be added, and an ability of the sugar to suppress the gelation of a collagen solution was confirmed by measuring a fibrillogenesis time.
Monosaccharides: Glucose and Glucuronic Acid
Each of various sugar solutions was added to a collagen solution (pH 7.4, final concentration: 3% [w/v]) (KOKEN ATELOCOLLAGEN IMPLANT [KOKEN CO., LTD.]) so that the final concentration was 0.01 M, followed by mixing. The mixed solution was measured for its time-dependent change in absorbance at 400 nm with a spectrophotometer while being heated at 37° C.

[2] = In vivo drug sustained-release ability of thyroglobulin formulation (Example 11); settings: thyroglobulin (669 kDa) with atelocollagen 3% [w/v], sucrose 0.25 M; 100 μL subcutaneous in mice; afterwards low sustained-release rate
Text: The sustained-release amount of thyroglobulin was quantitatively measured by HPLC in a time-dependent manner.
3.5% [w/v] atelocollagen Lot. I-175, Kasai Lac, 2.5 M sucrose, and a 100-mg protein solution were mixed at a blending ratio of 8:1:1. First, syringes filled with atelocollagen and sucrose were connected in series on ice, followed by thorough mixing by reciprocation 50 times. The mixed liquid was mixed with the protein solution by syringe reciprocation 50 times immediately before subcutaneous injection into mice.
The mice were purchased from Japan SLC, Inc. ICR strain female mice were purchased at 7-week-old 1 week before use and used at 8-week old. The collagen mixed liquid was injected into three sites in an amount of 100 μL per site (n=3). Each of samples after 0, minutes, 30 minutes, 45 minutes, 1 hour, 3 hours, 6 hours, and 12 hours was extirpated and heated to 80° C. in an Eppendorf tube so as to denature the collagen into a solution form. Each of the samples was analyzed through use of Agilent HPLC and an SEC-4 gel filtration column to quantify the concentration of the protein in the gel. In the HPLC, thyroglobulin is eluted at 5.927 minutes.

[3] = target: T1, collagen solution (KOKEN ATELOCOLLAGEN IMPLANT); assay: Spectroscopic evaluation of influence of sugar on gelation ability of collagen solution (Reference Example 1); format: physicochemical; settings: sucrose 0.01 or 0.25 M in collagen 3% [w/v], pH 7.4, 37° C., absorbance at 400 nm
Method: Specifically, a sucrose solution was added to a collagen solution (pH 7.4, final concentration: 3% [w/v]) (product name: KOKEN ATELOCOLLAGEN IMPLANT) so that the final concentration was 0, 0.01, or 0.25 M, followed by mixing. The mixed solution was measured for its time-dependent change in absorbance at 400 nm with a spectrophotometer while being heated at 37° C.

Type I atelocollagen = assay: Spectroscopic evaluation of influence of sugar on gelation of various collagen solutions (Reference Example 2); format: physicochemical, bovine, porcine; settings: 0.25 M sucrose, 1×PBS, 37° C., absorbance at 400 nm, 3 hours
Method: (§1) The influences of a sugar on the gelation abilities (fibrillogenic abilities) of various collagen solutions were investigated.
First, various collagens were each diluted to 0.2% [w/v] with 1 mM HCl. The various collagens used were as follows. • Type I atelocollagen (3.5% KAI: bovine, Lot. 1-107, pH 7) • Type I atelocollagen (3% KAI: porcine, stock of the laboratory, pH 7) • Type II atelocollagen (CL-22, Lot. 622052, pH 3) • Type III atelocollagen (NIP, 0.3% PSC-3-100-20, Lot. BSP310G001, 5 mM acetic acid) • Type I native collagen (1% 1-AC, Lot. 6002173, pH 3) • Shark atelocollagen (produced in the laboratory, powder, stored at −30° C.) […]
(§2) 100 μl of each of the prepared samples were added to a 96-well microplate and measured for its time-dependent change in absorbance at 400 nm (measurement interval: 30 seconds, measurement time: 3 hours) with an optical absorption microplate reader (TECAN, SUNRISE Thermo RC-R) while heated at 37° C. An average of the measured values (n=3) at the respective times was calculated.

[4] = target: T2, collagen solution (KAI, pH 7, PB buffer) (Bos taurus, UniProt P02453+P02465); assay: Influence of various sugars on gelation (fibrillogenesis time) of 3% collagen solution (Reference Example 3(1)); format: physicochemical; settings: collagen 3% [w/v]; sugar 0.05 to 0.5 M (monosaccharide), 0.05 to 0.25 M (disaccharide), 0.05 M raffinose, 0.05, 0.125 M stachyose; without degassing
T2 construct: atelocollagen obtained by treatment with a protease such as pepsin; KAI
Method: • (1) The kind and concentration of a sugar to be added were changed, and an ability of the sugar to suppress the gelation of a collagen solution was confirmed by measuring a fibrillogenesis time.
The collagen was prepared so that the final concentration was 3% [w/v]. KAI (pH 7, PB buffer) was used as the collagen. The kinds and final concentrations of the used sugars are as described below. • (i) Monosaccharide: Glucose or Fructose
0.05, 0.125, 0.25, 0.5 M • (ii) Disaccharide: sucrose or maltose
0.05, 0.125, 0.25 M • (iii) Trisaccharide: raffinose
0.05 M • (iv) Tetrasaccharide: stachyose
It should be noted that, in this reference example, measurements were carried out without degassing.

Type II atelocollagen = target: T3, Type II atelocollagen (Bos taurus, UniProt P02459); assay: Spectroscopic evaluation of influence of sugar on gelation of various collagen solutions (Reference Example 2); format: physicochemical; settings: 0.25 M sucrose, 1×PBS, 37° C., absorbance at 400 nm, 3 hours
T3 construct: atelocollagen obtained by treatment with a protease such as pepsin; purchased CL-22, Lot; 622052
Method: as §1
(§3) First, various collagens were each diluted to 0.2% [w/v] with 1 mM HCl. The various collagens used were as follows. • Type I atelocollagen (3.5% KAI: bovine, Lot. 1-107, pH 7) • Type I atelocollagen (3% KAI: porcine, stock of the laboratory, pH 7) • Type II atelocollagen (CL-22, Lot. 622052, pH 3) • Type III atelocollagen (NIP, 0.3% PSC-3-100-20, Lot. BSP310G001, 5 mM acetic acid) • Type I native collagen (1% 1-AC, Lot. 6002173, pH 3) • Shark atelocollagen (produced in the laboratory, powder, stored at −30° C.)
(§4) Distilled water (OTSUKA DISTILLED WATER, Cat. 1324, Lot. 0J90N), 2.5 M sucrose (Wako Pure Chemical Industries, Ltd., Cat. 196-00015, Lot. CKM1674), 100 mg/mL lysozyme (Tokyo Chemical Industry Co., Ltd., Cat. L072), and 10×PBS (DULBECCO′PBS, Dainippon Sumitomo Pharma Co., Ltd., Cat. 28-103-05 FN, Lot. 896458) were added to each of the various collagen solutions at 0.2% [w/v] to prepare a solution having final concentrations of 0.2% [w/v] collagen/0.25 M sucrose/10 mg/mL lysozyme/1×PBS. At this time, the ingredients were added so that the collagen, distilled water, sucrose, lysozyme, and PBS were mixed in this order.
as §2

Type III atelocollagen = target: T4, Type III atelocollagen (Bos taurus, UniProt P04258); assay: as above; format: physicochemical; settings: 0.25 M sucrose, 1×PBS, 37° C., absorbance at 400 nm, 3 hours
T4 construct: atelocollagen obtained by treatment with a protease such as pepsin; purchased NIP PSC-3-100-20, Lot; BSP310G001
T4 sequence (P04258 15-1040 limits assumed): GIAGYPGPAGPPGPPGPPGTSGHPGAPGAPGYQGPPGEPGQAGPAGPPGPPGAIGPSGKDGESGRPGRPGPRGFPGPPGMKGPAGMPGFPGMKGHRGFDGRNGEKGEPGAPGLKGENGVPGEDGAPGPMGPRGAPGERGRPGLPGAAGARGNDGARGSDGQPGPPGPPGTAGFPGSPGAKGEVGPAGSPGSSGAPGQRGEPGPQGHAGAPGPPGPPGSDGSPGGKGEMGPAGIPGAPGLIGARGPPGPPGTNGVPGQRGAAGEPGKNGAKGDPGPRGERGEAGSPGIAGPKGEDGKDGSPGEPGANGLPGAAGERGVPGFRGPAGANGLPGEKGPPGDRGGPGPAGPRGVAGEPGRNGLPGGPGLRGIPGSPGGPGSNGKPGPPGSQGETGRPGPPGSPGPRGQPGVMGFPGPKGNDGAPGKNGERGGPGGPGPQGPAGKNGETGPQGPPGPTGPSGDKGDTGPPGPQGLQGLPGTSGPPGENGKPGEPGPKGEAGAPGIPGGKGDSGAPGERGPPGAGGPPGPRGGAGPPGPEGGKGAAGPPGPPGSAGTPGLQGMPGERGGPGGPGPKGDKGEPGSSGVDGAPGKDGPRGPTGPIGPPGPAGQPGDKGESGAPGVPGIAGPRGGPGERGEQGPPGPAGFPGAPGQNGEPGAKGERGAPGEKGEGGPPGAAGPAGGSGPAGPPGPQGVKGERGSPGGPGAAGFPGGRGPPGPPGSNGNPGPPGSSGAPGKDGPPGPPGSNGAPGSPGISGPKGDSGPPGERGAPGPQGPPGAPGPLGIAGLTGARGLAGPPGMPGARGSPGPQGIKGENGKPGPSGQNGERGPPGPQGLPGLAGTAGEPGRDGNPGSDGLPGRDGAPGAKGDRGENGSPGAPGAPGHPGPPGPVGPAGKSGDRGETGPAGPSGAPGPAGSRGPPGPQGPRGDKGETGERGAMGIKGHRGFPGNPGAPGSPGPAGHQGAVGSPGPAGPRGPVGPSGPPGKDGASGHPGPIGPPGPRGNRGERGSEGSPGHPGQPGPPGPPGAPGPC
Method: as §1, §3, §4, §2

Shark atelocollagen = assay: as above; format: physicochemical; settings: 0.25 M sucrose, 1×PBS, 37° C., absorbance at 400 nm, 3 hours
Method: as §1, §3, §4, §2

Type I native collagen = target: T5, Type I native collagen (Bos taurus, UniProt P02453+P02465); assay: as above; format: physicochemical; settings: 0.25 M sucrose, 1×PBS, 37° C., absorbance at 400 nm, 3 hours
T5 construct: Type I native collagen (1% 1-AC, Lot. 6002173, pH 3); purchased 1-AC, Lot; 6002173
Method: as §1, §3, §4, §2

[5] = target: T2, collagen solution (KAI, pH 7, PB buffer); assay: Influence of maltotetraose and maltopentaose on gelation of collagen solution (Reference Example 4); format: physicochemical; settings: collagen 3% [w/v]; sugar 0.05, 0.125 M
Method: The kind and concentration of a sugar to be added were changed, and an ability of the sugar to suppress the gelation of a collagen solution was confirmed by measuring a fibrillogenesis time.
The collagen was prepared so that the final concentration was 3% [w/v]. KAI (pH 7, PB buffer) was used as the collagen. The kinds and final concentrations of the used sugars are as described below. • (i) Tetrasaccharide: maltotetraose
0.05, 0.125 M • (ii) Pentasaccharide: maltopentaose

KS collagen solution = assay: Influence of tetrasaccharide on gelation of 0.4% collagen solution (Reference Example 3(2)); format: physicochemical; settings: collagen 0.4% [w/v], pH 7; 0.05 M stachyose
Text: (2) The influence of a tetrasaccharide on a gelation ability was confirmed in the same manner as in the above-mentioned method (1) except that: the concentration of the collagen was changed to 0.4% [w/v]; and KS collagen (pH 3) adjusted to pH 7 with a neutralization liquid (7% [w/v] Na2HPO4, 0.9% [w/v] NaCl) was used as the collagen solution. 0.05 M stachyose was used as the tetrasaccharide in the same manner as in the method (1).

T1 sequence (P02453 178-1191 limits assumed): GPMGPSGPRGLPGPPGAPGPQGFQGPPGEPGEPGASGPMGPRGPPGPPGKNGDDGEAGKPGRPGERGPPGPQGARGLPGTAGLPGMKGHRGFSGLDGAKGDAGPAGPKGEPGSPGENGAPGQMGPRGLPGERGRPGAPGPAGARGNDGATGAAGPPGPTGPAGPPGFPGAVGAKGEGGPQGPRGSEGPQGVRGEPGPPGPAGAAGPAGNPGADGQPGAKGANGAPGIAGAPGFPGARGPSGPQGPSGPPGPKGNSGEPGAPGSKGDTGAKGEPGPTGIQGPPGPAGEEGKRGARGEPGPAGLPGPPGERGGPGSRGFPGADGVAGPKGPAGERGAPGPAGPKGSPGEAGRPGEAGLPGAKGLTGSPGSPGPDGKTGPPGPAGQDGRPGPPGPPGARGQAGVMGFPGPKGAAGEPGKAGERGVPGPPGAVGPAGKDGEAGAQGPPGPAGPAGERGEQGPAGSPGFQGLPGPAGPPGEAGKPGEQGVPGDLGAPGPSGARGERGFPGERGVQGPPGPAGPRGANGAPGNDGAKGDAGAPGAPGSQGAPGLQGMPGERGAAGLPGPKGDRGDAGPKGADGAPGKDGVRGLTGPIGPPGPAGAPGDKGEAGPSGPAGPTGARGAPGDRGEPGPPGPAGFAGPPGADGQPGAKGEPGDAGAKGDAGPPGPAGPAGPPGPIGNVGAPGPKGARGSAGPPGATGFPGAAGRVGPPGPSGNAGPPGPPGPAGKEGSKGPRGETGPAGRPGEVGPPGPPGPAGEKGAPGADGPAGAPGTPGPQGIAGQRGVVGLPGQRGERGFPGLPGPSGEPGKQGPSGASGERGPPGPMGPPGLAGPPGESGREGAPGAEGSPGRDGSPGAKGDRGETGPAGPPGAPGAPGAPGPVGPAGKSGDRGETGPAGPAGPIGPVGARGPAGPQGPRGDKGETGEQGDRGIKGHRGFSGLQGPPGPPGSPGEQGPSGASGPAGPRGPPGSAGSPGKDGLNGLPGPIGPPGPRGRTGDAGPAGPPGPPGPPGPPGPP
T1 sequence (P02465 80-1117 limits assumed): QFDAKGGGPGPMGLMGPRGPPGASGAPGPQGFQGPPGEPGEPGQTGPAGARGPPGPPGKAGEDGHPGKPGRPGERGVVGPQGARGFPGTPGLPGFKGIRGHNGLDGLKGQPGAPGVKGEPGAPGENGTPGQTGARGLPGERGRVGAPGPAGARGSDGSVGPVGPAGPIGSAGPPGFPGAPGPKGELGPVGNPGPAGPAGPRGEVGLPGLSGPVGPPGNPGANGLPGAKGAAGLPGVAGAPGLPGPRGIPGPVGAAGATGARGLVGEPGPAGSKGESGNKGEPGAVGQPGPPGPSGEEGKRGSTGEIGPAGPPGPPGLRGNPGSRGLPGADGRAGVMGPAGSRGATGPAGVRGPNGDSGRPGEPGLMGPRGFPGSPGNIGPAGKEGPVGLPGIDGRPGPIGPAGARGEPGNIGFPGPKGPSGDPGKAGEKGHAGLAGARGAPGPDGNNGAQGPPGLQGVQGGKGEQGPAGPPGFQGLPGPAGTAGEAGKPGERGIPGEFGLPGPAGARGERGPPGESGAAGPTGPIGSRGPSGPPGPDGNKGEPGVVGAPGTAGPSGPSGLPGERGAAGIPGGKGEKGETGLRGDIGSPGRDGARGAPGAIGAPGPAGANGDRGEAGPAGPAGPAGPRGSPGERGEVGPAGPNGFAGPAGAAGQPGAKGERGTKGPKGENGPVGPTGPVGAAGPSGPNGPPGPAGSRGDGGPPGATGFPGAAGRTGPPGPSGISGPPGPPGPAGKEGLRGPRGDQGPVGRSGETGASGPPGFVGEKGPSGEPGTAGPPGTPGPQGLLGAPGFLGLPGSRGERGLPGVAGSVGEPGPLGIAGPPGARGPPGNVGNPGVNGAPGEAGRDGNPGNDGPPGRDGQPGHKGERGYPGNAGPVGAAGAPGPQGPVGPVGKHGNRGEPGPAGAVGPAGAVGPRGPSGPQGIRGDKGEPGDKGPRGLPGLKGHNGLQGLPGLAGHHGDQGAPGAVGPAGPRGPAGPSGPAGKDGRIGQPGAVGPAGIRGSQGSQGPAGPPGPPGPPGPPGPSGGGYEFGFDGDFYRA
T2 sequence (P02453 178-1191 limits assumed): as the sequence (P02453 178-1191 limits assumed) above
T2 sequence (P02465 80-1117 limits assumed): as the sequence (P02465 80-1117 limits assumed) above
T3 sequence (P02459 201-1214 limits assumed): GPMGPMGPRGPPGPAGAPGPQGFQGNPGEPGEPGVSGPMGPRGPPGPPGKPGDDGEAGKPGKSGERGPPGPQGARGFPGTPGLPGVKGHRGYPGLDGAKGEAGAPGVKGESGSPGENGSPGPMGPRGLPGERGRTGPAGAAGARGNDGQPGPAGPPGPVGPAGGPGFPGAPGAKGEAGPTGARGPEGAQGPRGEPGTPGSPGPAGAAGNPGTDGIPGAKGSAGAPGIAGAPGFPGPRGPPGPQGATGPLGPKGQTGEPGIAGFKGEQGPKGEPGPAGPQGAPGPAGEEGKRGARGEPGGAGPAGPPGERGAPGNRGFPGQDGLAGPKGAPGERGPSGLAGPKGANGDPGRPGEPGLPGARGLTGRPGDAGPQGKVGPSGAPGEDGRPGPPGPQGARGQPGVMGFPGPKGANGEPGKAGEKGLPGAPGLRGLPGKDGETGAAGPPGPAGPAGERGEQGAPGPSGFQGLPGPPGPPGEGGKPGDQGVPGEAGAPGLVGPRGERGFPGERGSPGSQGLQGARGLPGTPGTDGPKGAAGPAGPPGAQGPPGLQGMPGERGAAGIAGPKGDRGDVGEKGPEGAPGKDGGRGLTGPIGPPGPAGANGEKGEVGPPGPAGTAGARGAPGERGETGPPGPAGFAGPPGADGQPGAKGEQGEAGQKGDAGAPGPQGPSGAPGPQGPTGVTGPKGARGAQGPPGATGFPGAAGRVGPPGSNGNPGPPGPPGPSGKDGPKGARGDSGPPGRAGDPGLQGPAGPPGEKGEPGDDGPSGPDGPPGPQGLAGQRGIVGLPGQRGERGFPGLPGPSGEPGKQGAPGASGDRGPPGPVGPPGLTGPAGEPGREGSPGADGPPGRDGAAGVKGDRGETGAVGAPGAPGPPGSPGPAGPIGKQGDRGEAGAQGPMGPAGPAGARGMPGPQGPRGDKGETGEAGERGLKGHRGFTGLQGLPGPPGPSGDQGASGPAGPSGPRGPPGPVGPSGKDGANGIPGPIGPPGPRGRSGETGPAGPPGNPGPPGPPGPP
T5 sequence (P02465 80-1117): as the sequence (P02465 80-1117 limits assumed) above
T5 sequence (P02453 162-1217): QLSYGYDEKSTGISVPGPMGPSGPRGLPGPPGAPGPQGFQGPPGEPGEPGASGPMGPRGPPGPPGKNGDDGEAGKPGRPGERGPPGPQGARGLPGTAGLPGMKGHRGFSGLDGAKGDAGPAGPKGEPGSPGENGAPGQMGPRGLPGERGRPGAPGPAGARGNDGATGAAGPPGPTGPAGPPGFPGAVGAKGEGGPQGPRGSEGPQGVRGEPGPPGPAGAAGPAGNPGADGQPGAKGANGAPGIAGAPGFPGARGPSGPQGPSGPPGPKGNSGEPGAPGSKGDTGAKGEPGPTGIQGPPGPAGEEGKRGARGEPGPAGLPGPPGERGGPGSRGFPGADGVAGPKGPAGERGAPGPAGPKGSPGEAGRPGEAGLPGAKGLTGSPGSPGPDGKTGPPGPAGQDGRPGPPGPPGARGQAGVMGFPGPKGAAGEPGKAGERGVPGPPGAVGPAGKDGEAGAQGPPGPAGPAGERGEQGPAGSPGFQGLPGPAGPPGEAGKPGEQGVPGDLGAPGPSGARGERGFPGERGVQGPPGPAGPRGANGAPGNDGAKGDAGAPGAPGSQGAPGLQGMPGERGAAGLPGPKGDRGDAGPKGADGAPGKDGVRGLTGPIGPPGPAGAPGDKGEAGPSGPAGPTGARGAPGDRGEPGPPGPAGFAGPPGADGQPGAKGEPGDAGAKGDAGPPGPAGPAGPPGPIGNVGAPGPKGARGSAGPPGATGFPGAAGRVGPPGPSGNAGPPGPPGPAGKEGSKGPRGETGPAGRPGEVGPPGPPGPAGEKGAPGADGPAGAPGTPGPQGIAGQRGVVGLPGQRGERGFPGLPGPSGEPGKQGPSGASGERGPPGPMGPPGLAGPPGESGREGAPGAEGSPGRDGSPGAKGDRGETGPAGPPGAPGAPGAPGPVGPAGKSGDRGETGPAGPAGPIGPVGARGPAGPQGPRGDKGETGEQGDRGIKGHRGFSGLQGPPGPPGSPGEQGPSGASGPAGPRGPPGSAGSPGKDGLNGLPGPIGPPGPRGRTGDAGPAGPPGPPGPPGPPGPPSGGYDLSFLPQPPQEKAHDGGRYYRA

## O=C[C@H](O)[C@@H](O)[C@H](O)[C@H](O)C(=O)O [glucuronic acid]
[1]
  gelation suppressing effect: low gelation suppressing effect as compared to glucose

## thyrogloblin: high molecular weight protein (669 kDa) used as drug in sucrose/atelocollagen formulation
[2]
  period of fast release after the injection: ≤ 3 h

## OC[C@H]1O[C@@](CO)(O[C@H]2O[C@H](CO)[C@@H](O)[C@H](O)[C@H]2O)[C@@H](O)[C@@H]1O [sucrose]
[3]
  influence on gelation of collagen solution: delayed in a sucrose concentration-dependent manner
Type I atelocollagen
  influence on gelation of collagen solution: suppressed gelation
[4]
  suppression of gelation of collagen (fibrillogenesis time): suppressed in a concentration-dependent manner
Type II atelocollagen
  influence on gelation of collagen solution: suppressed gelation
Type III atelocollagen
  influence on gelation of collagen solution: suppressed gelation
Shark atelocollagen
  influence on gelation of collagen solution: suppressed gelation
Type I native collagen
  influence on gelation of collagen solution: suppressed gelation
[1]
  gelation suppressing effect: high gelation suppressing effect

## maltopentaose
[5]
  fibrillogenesis suppressing effect (fibrillogenesis time): substantially no delay

## OC[C@H]1O[C@H](OC[C@H]2O[C@H](O[C@]3(CO)O[C@H](CO)[C@@H](O)[C@@H]3O)[C@H](O)[C@@H](O)[C@@H]2O)[C@H](O)[C@@H](O)[C@H]1O [raffinose]
[4]
  suppression of gelation of collagen (fibrillogenesis time): delayed as compared to the case of adding no sugar

## O=C(CO)[C@@H](O)[C@H](O)[C@H](O)CO [fructose]
[4]
  suppression of gelation of collagen (fibrillogenesis time): suppressed in a concentration-dependent manner

## OC[C@H]1O[C@H](O[C@H]2[C@H](O)[C@@H](O)C(O)O[C@@H]2CO)[C@H](O)[C@@H](O)[C@@H]1O (mixture of isomers) [maltose]
[4]
  suppression of gelation of collagen (fibrillogenesis time): suppressed in a concentration-dependent manner

## OC[C@H]1O[C@H](OC[C@H]2O[C@H](OC[C@H]3O[C@H](O[C@]4(CO)O[C@H](CO)[C@@H](O)[C@@H]4O)[C@H](O)[C@@H](O)[C@@H]3O)[C@H](O)[C@@H](O)[C@H]2O)[C@H](O)[C@@H](O)[C@H]1O [stachyose]
KS collagen solution
  fibrillogenesis time of the collagen solution: delayed
[4]
  suppression of gelation of collagen (fibrillogenesis time): hardly confirmed

## OC[C@H]1O[C@H](O[C@H]2[C@H](O)[C@@H](O)[C@@H](O[C@H]3[C@H](O)[C@@H](O)[C@@H](O[C@H]4[C@H](O)[C@@H](O)C(O)O[C@@H]4CO)O[C@@H]3CO)O[C@@H]2CO)[C@H](O)[C@@H](O)[C@@H]1O (some centres unmarked) [Maltotetraose, maltotetraose]
[5]
  fibrillogenesis suppressing effect (fibrillogenesis time): comparable to that of the monosaccharide
